Assay results taken from patent publication US8518710B2, “Photon reducing agents for fluorescence assays” (Life Technologies Corporation, priority 1997, dated 2013).

assay: Absorption maxima of dyes (Table 1); type: physicochemical

Row | Compound | Absorption maxima of dyes
1 | CCN(CC)c1ccc(C(=C2C=CC(=[N+](CC)CC)C=C2)c2cc(O)c(S(=O)(=O)O)cc2S(=O)(=O)O)cc1 [Patent Blue] | 635 nm
2 | O=C([O-])C1=NN(c2ccc(S(=O)(=O)[O-])cc2)C(=O)C1N=Nc1ccc(S(=O)(=O)[O-])cc1.[Na+].[Na+].[Na+] (centres unmarked) [Tartrazine] | 425 nm
3 | Cc1cc(-c2ccc(/N=N/c3c(S(=O)(=O)O)cc4cc(S(=O)(=O)O)cc(N)c4c3O)c(C)c2)ccc1/N=N/c1c(S(=O)(=O)O)cc2cc(S(=O)(=O)O)cc(N)c2c1O [Trypan Blue] | 607 nm
4 | Acid Fuchsin | 546 nm
5 | Acid Red 37 | 513 nm
